In patent US9801918B2, “Methods of treatment using extracts of Anisomeles heyneana” (Council of Scientific & Industrial Research, priority 2011, dated 2017):
≈ marks a conversion by molar mass, not a printed value.

Assays:
[1] = test system: human monocytic leukaemia Thp-1 cell lines; assay: Anti proliferative activity-MTT cell proliferation assay on human Thp-1 cell line; type: cell-based; details: for % Inhibition on Thp-1 cell line at 100 μg/ml / inhibition at 100 µg/mL: 72 h, MTT, average±standard deviation, triplicate, 100 μg/ml; for inhibition at 100 µg/mL: Homo sapiens, THP-1, 72 h
M. tuberculosis = assay: Anti-mycobacterial activity (inhibition of growth of M. tuberculosis); type: cell-based; details: concentration exhibiting 90% inhibition against growth of M. tuberculosis, 'Not active' at 100 μg/ml; for IC90: Mycobacterium tuberculosis, read-out: IC90 value determined against M. tuberculosis

Row | SMILES | % Inhibition on Thp-1 cell line at 100 μg/ml [1] [%] | IC90 (M. tuberculosis) [µg/mL] | inhibition at 100 µg/mL [1] [%] | anti proliferative activity (in words) ([1]; qualitative statement) | IC90 value determined against M. tuberculosis (M. tuberculosis)
1 | C=C1C(=O)O[C@H]2/C=C(\C)C[C@@H]3C=C(CC/C=C(\C)CC[C@H]12)C(=O)O3 [Compound 1, (1R,3E,5S,9R,12E)-3,12-Dimethyl-8-methylene-6,18-dioxatricyclo[14.2.1.05,9]nonadeca-3,12,16(19)-triene-7,17-dione] | 96.4 ± 0.4592 | 6.53 (≈ 19.9 µM) | – | – | –
2 | C[C@]12CCC[C@](C)(C(=O)O)[C@@H]1CC[C@@]13C[C@@H](CC[C@@H]12)[C@@](O)(CO)C3 [Compound 2, phyllocladan-16α,17-dihydroxy-19-oic acid] | 59.02 ± 0.8725 | – | 59 to 97 | comparable to well known drug, paclitaxel | Not active^c
3 | NNC(=O)c1ccncc1 [Isoniazid, reference compound] | – | 0.05 ± 0.003 (≈ 0.365 µM) | – | – | –
4 | CC(=O)O[C@H]1C(=O)[C@@]2(C)[C@H]([C@H](OC(=O)c3ccccc3)[C@]3(O)C[C@H](OC(=O)[C@H](O)[C@@H](NC(=O)c4ccccc4)c4ccccc4)C(C)=C1C3(C)C)[C@]1(OC(C)=O)CO[C@@H]1C[C@@H]2O [Paclitaxel, reference compound] | – | – | 61 | – | –
